Results: patent publication US20110059909A1, “METHODS FOR TREATING INFLAMMATORY DISORDERS” (priority 2004, published 2011)

What was measured:
rat primary astrocytes [1] = assay: Assay for NO production (nitrite, Griess reagent) in LPS/IFNγ-stimulated primary astrocytes; format: cell-based; details: for LPS/IFNγ-induced NO production: primary astrocytes, LPS/IFNγ (1 μg/ml; 10 U/ml), NO at 24 h
Experimental: (§1) Primary astrocyte-enriched cultures were prepared from the whole cortex of one day old Sprague-Dawley rats as described earlier (Pahan et al., 1998b). Briefly, the cortex was rapidly dissected in ice-cold calcium/magnesium free Hanks Balanced Salt Solution (HBSS) (Gibco, Grand Island, N.Y.) at pH 7.4 as described previously (Won et al., 2001). The tissue was then minced, incubated in HBSS containing trypsin (2 mg/ml) for 20 min and washed twice in plating medium containing 10% FBS and 10 μg/ml gentamicin, and then disrupted by triturating through a Pasteur pipette following which cells were seeded in 75-cm^2 culture flasks (Falcon, Franklin, N.J.). After incubation at 37° C. in 5% CO2 for 1 day, the medium was completely changed to the culture medium (DMEM containing 5% FBS and 10 μg/ml gentamicin). The cultures received half exchanges with fresh medium twice a week. After 14-15 days the cells were shaken for at least 24 h on an orbital shaker to remove the microglia and then seeded on multi-well tissue culture dishes. The cells were incubated with serum-free DMEM for 24 h prior to the incubation with drugs.
Cells were cultured in 12-well plastic tissue culture plates. Following appropriate treatment, production of NO was determined by an assay of the culture supernatant for nitrite (Green et al., 1982). Briefly, 100 μl of culture supernatant was allowed to react with 100 μl of Griess reagent. The optical density of the assay samples was measured spectrophotometrically at 570 nm. Nitrite concentrations were calculated from a standard curve derived from the reaction of NaNO2 in fresh media.

rat primary astrocytes [2] = assay: BrdU incorporation assay, proliferation of primary astrocytes; format: cell-based; details: for TNFα-induced astrocyte proliferation: pretreated 0.5 h (AS: 48 h after transfection), TNFα 1 ng/ml 18 h
Experimental: as §1
Proliferation of primary astrocytes was assayed by using the Cell proliferation ELISA, BrdU colorimetric assay kit (Roche, Germany) according to manufacturer's protocol. Briefly, cells were seeded in 96 well plates in quadruplicate and following overnight serum starvation were stimulated with mitogenic stimulants. 2 h before termination of proliferation assay, BrdU (10 μM) was added to each well following which cells were fixed and levels of incorporated BrdU were assayed by using a conjugated anti-BrdU enzyme. Colorimetric analysis was done by measuring absorbance at 370 nm using a spectramax MAX 190 (Molecular devices) multi-well plate reading spectrophotometer.

GFAP = GFAP mRNA (real time PCR) and protein (immunoblot) in TNFα-stimulated primary astrocytes; format: cell-based, rat; details: for TNFα-induced GFAP mRNA and protein expression: TNFα 1 ng/ml, mRNA 8 h, protein 18 h
Experimental: (§2) For iNOS protein, the cells were washed with cold Tris buffered saline (TBS; 20 mM Trizma base, and 137 mM NaCl, pH 7.5), lysed in 1×SDS sample loading buffer (62.5 mM Trizma base, 2% w/v SDS, 10% glycerol), following sonication and centrifugation at 15,000×g for 5 min, the supernatant was used for the iNOS western immunoblot assay. The protein concentration of samples was determined with the detergent compatible protein assay reagent (Bio-Rad Laboratories, CA) using bovine serum albumin (BSA) as the standard. Sample was boiled for 3 min with 0.1 volumes of 10% β-mercaptoethanol and 0.5% bromophenol blue mix. Fifty μg of total cellular protein was resolved by electrophoresis on 8 or 12% polyacrylamide gels, electro-transferred to polyvinylidene difluoride (PVDF) filter and blocked with Tween 20 containing Tris-buffered saline (TBST; 10 mM Trizma base-pH 7.4, 1% Tween 20, and 150 mM NaCl) with 5% skim milk. After incubation with antiserum against iNOS (BD PharMingen, CA), rat GalT-2 (Abjent Inc., CA), H-Ras (Upstate Biotechnology, CA), GFAP (Santa Cruz Biotech, CA), or phospho-specific ERK1/2 (Cell signaling Tech Inc., MA), or pIκ-B (Signal Transduction), in PVDF buffer for 2 h at room temperature, the filters were washed 3 times with TBST buffer and then incubated with horseradish peroxidase conjugated anti-rabbit or mouse IgG for 1 h. The membranes were detected by autoradiography using ECL-plus (Amersham Pharmacia Biotech) after washing with TBST buffer.

iNOS = iNOS mRNA (RT-PCR) and protein (immunoblot) in LPS/IFNγ-stimulated primary astrocytes; format: cell-based, rat; details: for LPS/IFNγ-induced iNOS mRNA and protein levels: primary astrocytes, LPS/IFNγ (1 μg/ml; 10 U/ml), mRNA 6 h, protein 24 h
Experimental: as §1, §2
5 μg total RNA was treated with 2 U DNAse I (bovine pancreas, Sigma) for 15 min at room temperature in 18 μl volume containing 1×PCR buffer and 2 mM MgCl2. It was then inactivated by incubation with 2 μl of 25 mM EDTA at 65° C. for 15 min. 2 μl of random primers were added and annealed to the RNA according to the manufacturer's protocol. cDNA was synthesized in a 50 μl reaction containing 5 μg of total RNA and 50-100 U reverse transcriptase by incubating the tubes at 42° C. for 60 min. PCR amplification was conducted in 25 μl of reaction mixture with 1.0 μl of cDNA, […] of each primer and under the manufacturer's Taq polymerase conditions (Takara, Takara Shuzo Co. Ltd, Japan). The sequence of primers used for PCR amplification are as follows; iNOS, (Forward-5′ […] 3′, SEQ ID NO:3; Reverse-5′ […] 3′, SEQ ID NO:4), GalT-2 (Forward-5′ tggtacaagctagaggc 3′, SEQ ID NO:5; Reverse-5′ gcatggcacattgaa C-3′, SEQ ID NO:6), GAPDH (Forward-5′ […] 3′, SEQ ID NO:7; Reverse-5′ cttcacgaagttgtcattgagggca3′, SEQ ID NO:8), TNFα (Forward-5′ […] g-3′, SEQ ID NO:9; Reverse-5′[…]-3′, SEQ ID NO:10) and IL-1β (Forward-5′[…]-3′, SEQ ID NO:11; reverse-5′[…]-3′, SEQ ID NO:12).

NF-κB = assay: κB-repeat luciferase reporter gene assay; format: cell-based, rat
Experimental: Dominant negative and constitutively active ras expression vector (pCMVrasN17 and pCMVrasv12) and κB repeat luciferase reporter construct (pNF-κB-Luc) were purchased from BD Biosciences. 3×10^5 cells/well were cultured in 6-well plates for one day before the transfection. Transfection was performed with plasmid concentration constant (2.5 μg/transfection) and 8 μl of Fugene transfection reagent (Roche Molecular Biochemicals). 24 h after transfection, the cells were placed in serum free media for overnight. Following appropriate treatment, the cells were washed with phosphate buffered saline (PBS), scraped, and then resuspended with 100 μl of lysis buffer (40 mM of Tricine pH 7.8, 50 mM of NaCl, 2 mM of EDTA, 1 mM of MgSO4, 5 mM of dithiothreitol, and 1% of Triton X-100). After incubation at room temperature for 15 min with occasional vortexing, the samples were centrifuged. The luciferase and β-galactosidase activities were measured by using luciferase assay kit (Stratagene, CA) and β-gal assay kit (Invitrogen, CA) respectively. The emitted light and optical absorbance was measured using Spectra Max/Gemini XG (Molecular Device, CA) and SpectraMax 190 (Molecular Device).

Question: Which results are given for “AS GalT-2 oligonucleotides: 20-mer antisense oligonucleotide 5′-CGCTTGAGCGCAGACATCTT-3′, SEQ ID NO:1, against rat lactosylceramide synthase (GalT-2) (antisense CGCTTGAGCGCAGACATCTT; chemistry not given here)”?
Answer: LPS/IFNγ-induced NO production (rat primary astrocytes [1]): decreased; TNFα-induced astrocyte proliferation (rat primary astrocytes [2]; BrdU incorporation): decreased; TNFα-induced GFAP mRNA and protein expression (GFAP): diminished; LPS/IFNγ-induced iNOS mRNA and protein levels (iNOS): decreased

Question: Which “Reversal of PDMP-mediated inhibition of LPS/IFNγ-induced NO production” value (rat primary astrocytes [1]; PDMP 50 μM plus exogenous glycosphingolipid 5 and 10 μM, 0.5 h before LPS/IFNγ) does the source give for Lactosylceramide [LacCer] here?
Answer: blunted

Question: And the “Reversal of GalT-2 AS-mediated inhibition of NO production and iNOS levels” value (rat primary astrocytes [1]; exogenous LacCer, LPS/IFNγ)?
Answer: reversed the inhibition

Question: What about the “Reversal of LY-mediated inhibition of TNFα-induced proliferation” value (rat primary astrocytes [2]; LY 30 μM plus exogenous lipid) of the same compound?
Answer: effectively blunted

Question: What about the “Reversal of PDMP-mediated inhibition of TNFα-induced proliferation” value (rat primary astrocytes [2]; PDMP 25 μM plus exogenous lipid) of the same compound?
Answer: able to bypass

Question: And the “Reversal of GalT-2 AS-mediated inhibition of TNFα-induced proliferation” value (rat primary astrocytes [2]; exogenous LacCer)?
Answer: bypassed the inhibition

Question: What about the “Reversal of DMS-mediated inhibition of TNFα-induced proliferation” value (rat primary astrocytes [2]; exogenous lipid) of the same compound?
Answer: reversed

Question: What about the “Reversal of PD98059-mediated inhibition of TNFα-induced proliferation” value (rat primary astrocytes [2]; exogenous lipid) of the same compound?
Answer: could not be reversed

Question: What about the “Proliferation of astrocytes induced by the substance itself” value (rat primary astrocytes [2]; increasing doses (1, 5 and 10 μM for GSL), 18 h, BrdU incorporation) of the same compound?
Answer: induced proliferation

Question: And the “Reversal of PDMP-mediated inhibition of TNFα-induced GFAP expression” value (GFAP; PDMP 25 μM plus LacCer 5 μM)?
Answer: reversed

Question: What about the “Reversal of AS-mediated inhibition of GFAP expression” value (GFAP; exogenous LacCer) of the same compound?
Answer: blunted

Question: And the “Reversal of LY-mediated inhibition of TNFα-mediated GFAP expression” value (GFAP; exogenous LacCer)?
Answer: effectively bypassed

Question: And the “Effect on PD98059-mediated inhibition of GFAP expression” value (GFAP; exogenous LacCer, TNFα)?
Answer: no effect

Question: What about the “Reversal of DMS-mediated inhibition of TNFα-induced GFAP expression” value (GFAP; exogenous lipid) of the same compound?
Answer: reversed

Question: What about the “Reversal of NAC- and PDTC-mediated inhibition of LPS/IFNγ-stimulated iNOS gene expression” value (iNOS; NAC 10 mM or PDTC 100 μM, exogenous LacCer) of the same compound?
Answer: not reversed

Question: And the “Reversal of PDMP-mediated inhibition of iNOS gene expression” value (iNOS; PDMP 50 μM plus LacCer 5 and 10 μM, 0.5 h before LPS/IFNγ)?
Answer: blunted

Question: What about the “Effect on PD98059-mediated inhibition of iNOS gene expression” value (iNOS; exogenous LacCer, LPS/IFNγ) of the same compound?
Answer: no effect

Question: And the “Reversal of PDMP effect on κB-luciferase activity” value (NF-κB; exogenous LacCer)?
Answer: effectively bypassed

Question: With `CCCCCCCCCC(=O)NC(CN1CCOCC1)C(O)c1ccccc1.Cl` [PDMP, D-threo-1-Phenyl-2-decanoylamino-3-morpholino-1-propanol.HCl] as the compound, how does the “LPS/IFNγ-induced NO production” value (rat primary astrocytes [1]) read?
Answer: dose dependent decrease

Question: What about the TNFα-induced astrocyte proliferation (rat primary astrocytes [2]; BrdU incorporation) of the same compound?
Answer: dose dependently inhibited

Question: What about the “TNFα-induced GFAP mRNA and protein expression” value (GFAP) of the same compound?
Answer: inhibited

Question: And the “LPS/IFNγ-induced iNOS mRNA and protein levels” value (iNOS)?
Answer: dose dependent decrease

Question: And the “LPS/IFNγ-induced κB-luciferase activity” value (NF-κB; PDMP 0.5 h before LPS/IFNγ)?
Answer: abolished
